Results reported in patent publication US8597646B2, “Methods and compositons featuring TGF-beta antagonists for the treatment of marfan syndrome and associated disorders” (The Johns Hopkins University, priority 2005, dated 2013).
“Also recorded” adds a separate entry of the source.

Experiments:
Assay type in all cases: in vivo, mouse
mdx mice [1] = experiment: Long-term losartan in mdx mice: fibrosis and centrally located nuclei in diaphragm and gastrocnemius
Procedure: Mice were continued on oral therapy for 6 months and sacrificed. […] Age-matched wild-type and mdx mice (placebo-treated) served as a control group. After 6 months of treatment, forelimb and hindlimb grip strength was assessed using an automated grip strength meter (Columbus Instruments, Columbus, Ohio). The experiments for forelimb and hindlimb grip strength testing were conducted at different days allowing for a minimum recovery period of 10 days. Total peak force (in Newtons) was determined by an electronic strain gauge as previously described and corrected for body weight (Wagner, K. R., et al. (2002) Ann Neurol 52, 832-6). Five measurements within 2 minutes were taken from each animal. The three highest measurements for each animal were averaged to give the strength score. The degree of fatigue was calculated by comparing the first two pulls to the last two pulls with the decrement between pulls 1+2 and pulls 4+5 providing a measure of fatigue. Similarly, functional measurements were performed in 6 month old fibrillin-1 deficient mice (Fbn1^mgR) (Pereira, L. et al. (1997) Nat Genet. 17, 218-22) after 5 months of treatment.
For morphometric analyses, skeletal muscle was flash frozen in cooled isopentane and mounted in Tragacanth (Sigma Aldrich, USA). Subsequently, 10 μm sections were stained with hematoxylin and eosin. Muscle fibers were counted in a defined area (9 mm^2) of the tibialis anterior muscle of 10-day-old wild-type (n=3) and Fbn1C1039G/C1039G mice (n=6) and fiber diameter was determined by measuring the shortest fiber axis within cross-sections of the tibialis anterior muscle, counting a total of 850-1500 fibers. The cross sectional area of undamaged and regenerating myofibers of the tibialis anterior muscle from wild-type and Fbn1^C1039G/+ mice was expressed as a distribution of the percentage of the total number of myofibers analyzed (850-1500) (Horsley, V. et al (2003) Cell 113, 483-94). Sections of skeletal muscle were taken along the same anatomical region of the mid-belly of the tibialis anterior muscle. The number of c-met, M-cadherin- and myogeninpositive cells in 50 fields of the tibialis anterior muscle mid-belly area was scored using the x40 objective. At least six animals per genotype were scored and all analyses were performed by investigators blinded to genotype and treatment group. All images were taken using an Eclipse E400 microscope (Nikon Inc.) and cross-sectional area measurements were determined using IPLAB software (Scanalytics, Fairfax, Va.). Neonatal myosin-positive fibers after cardiotoxin challenge were quantified by counting 900-1240 fibers per toxin-challenged muscle (n=4). For quantification of fibrotic tissue formation in toxin challenged mice (n=4), immunofluorescent staining for vimentin was performed. Five sections throughout the entire tibialis anterior muscle were analyzed at low magnification and vimentin positive areas were calculated as a percentage of the total muscle area using the NIH Scion image software, public domain. Similarly, van-Gieson and vimentin stained sections were used to delineate the percentage of fibrotic versus total muscle area in diaphragm and gastrocnemius of long-term losartan-treated, placebo-treated mdx and wild-type mice (n=6 each group) using the NIH Scion software. For evaluation of percent centrally located nuclei a total of 1100-1300 muscle fibers per diaphragm of each mouse (n=6, each group) and a total of 1900-2200 muscle fibers per gastrocnemius of each mouse (n=6, each group) were calculated.

Fbn1C1039G/+ mice = experiment: Lung distal airspace caliber (mean linear intercept) in Fbn1C1039G/+ mice treated postnatally with losartan; conditions: for Distal airspace caliber / alveolar septation, in words: postnatal losartan, monopotassium salt
Description: This abnormality correlated with increased TGF-β signaling and was prevented by prenatal administration of TGF-β NAb.

mdx mice [2] = experiment: Muscle regeneration after cardiotoxin injury in 9-month old mdx mice
Procedure: All mouse protocols were approved by the Animal Care and Use Committee of Johns Hopkins University School of Medicine. Creation of the mouse line harboring the Fbn1 mutation C1039G has been previously described (Judge, D. P. et al. (2004) J Clin Invest 114, 172-81). All analyses were performed in male mice after back-crossing (>9 times) this mutation into the C57BL/6J background, allowing valid comparisons between litters. Mice were sacrificed with an inhalation overdose of halothane (Sigma-Aldrich) or by cervical dislocation. For muscle regeneration experiments in Fbn1^C1039G/+ mice, 100 μl cardiotoxin (10 μM Naja nigricollis; Calbiochem, La Jolla, Calif.) (Goetsch, S. C. et al. (2003) Physiol Genomics 14, 261-71; Cohn, R. D. et al. (2002) Cell 110, 639-48) was injected into the tibialis anterior muscle of wild-type and Fbn1^C1039G/+ mice either treated or untreated with TGFβ neutralizing antibody (n=6, each group) at 4 months of age. Subsequently, mice were analyzed at 4, 7, 18 and 28 days after injury. For regeneration experiments in mdx mice we injected 150 μl of cardiotoxin into the tibialis anterior muscle of wild-type and mdx mice, either treated or untreated with TGFβ neutralizing antibody (n=6 each group) at 9 months of age and analyzed skeletal muscle at 4 days and 18 days after injection.
Mice were continued on oral therapy for 6 months and sacrificed. […] Age-matched wild-type and mdx mice (placebo-treated) served as a control group. After 6 months of treatment, forelimb and hindlimb grip strength was assessed using an automated grip strength meter (Columbus Instruments, Columbus, Ohio). […] Total peak force (in Newtons) was determined by an electronic strain gauge as previously described and corrected for body weight (Wagner, K. R., et al. (2002) Ann Neurol 52, 832-6). […] The degree of fatigue was calculated by comparing the first two pulls to the last two pulls with the decrement between pulls 1+2 and pulls 4+5 providing a measure of fatigue. […]

Compound: CCCCc1nc(Cl)c(CO)n1Cc1ccc(-c2ccccc2-c2nnn[nH]2)cc1.[K] [losartan, 2-butyl-4-chloro-1-[p-(o-1H-tetrazol-5-ylphenyl)benzyl]imidazole-5-methanol monopotassium salt]
- Muscle fibers containing centrally located nuclei, diaphragm and gastrocnemius, in words (mdx mice [1]; 6 months of losartan): increased percentage
- Centrally located nuclei, gastrocnemius (mdx mice [1]; 6 months of losartan, mdx 25±5, wild-type 2±0.5): 36%±+6
- Fibrotic area, diaphragm (mdx mice [1]; 6 months of losartan, mdx 32±5, wild-type 4±1): 18%±4
- Percentage of centrally located nuclei, diaphragm (mdx mice [1]; 6 months of losartan, mdx 35±5, wild-type 2±0.5): 48%±6
- Fibrosis, gastrocnemius (mdx mice [1]; 6 months of losartan, mdx 75±6.4, wild-type 4±2): 89%±5.8
- Myopathic disease progression / steady-state architecture in mdx mice (mdx mice [1]; long-term losartan, 9 month-old mdx mice, monopotassium salt): significant attenuation of disease progression; also recorded: improved steady-state architecture; also recorded: attenuates myopathic disease progression
- Mean linear intercept (Fbn1C1039G/+ mice; losartan from 7 weeks of age, 6 months, placebo 84.3±15, wild-type 41.3±5): 53.9±12 μm
- Distal airspace caliber / alveolar septation, in words (Fbn1C1039G/+ mice; listed as Losartan): rescued; also recorded: normalization of the caliber of the distal airspace
- Distal airspace caliber / alveolar septation, in words (Fbn1C1039G/+ mice): reduced
- Muscle regeneration in mdx mice, in words (mdx mice [2]; 4 days after cardiotoxin, neonatal myosin staining): active regeneration comparable to that seen in wild-type mice
- Fibrosis (vimentin) after injury, in words (mdx mice [2]; 18 days after cardiotoxin, monopotassium salt): reduced fibrosis; also recorded: marked reduction in fibrosis
- Neonatal myosin positive fibers (mdx mice [2]; four days after injury, untreated mdx 268±12, wild-type 689±19): 513±14 neonatal myosin positive fibers per tibialis anterior muscle
